# Measurements from patent US20070184481A1, “Assay For Transcriptionally Active Methylated Promoters” (UNIVERSITY OF SOUTH FLORIDA, priority 2005, published 2007).
# System: HLA-DRA mRNA in RFX-negative cell lines
# Settings: two RFX-negative suspension B-cell lines, 5 uM Azacytidine for 72 hours, RT-PCR 40 cycles, agarose gel detection
# Protocol: Suspension B-cell lines were seeded at 10^5 cells per ml in 20 ml volume of media. […] Total RNA was prepared as described, and 5 ug of RNA were used in a standard reverse transcriptase, polymerase chain reaction (RT-PCR) for HLA-DRA mRNA and for γ-actin mRNA. PCR was performed for 40 cycles and the PCR products detected by 2.2% agarose gel electrophoresis.
compound,measurement,value
"Nc1ncn([C@@H]2O[C@H](CO)[C@@H](O)[C@H]2O)c(=O)n1 [AzaC, Azacytidine]",HLA-DRA mRNA production compared to untreated cells,increase in HLA-DRA mRNA production
